Assays:
[1] = test system: purple nutsedge; experiment: Test B pre/postemergence purple nutsedge; assay type: in vivo, Cyperus rotundus
Procedure, shortened: (§1)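 Herbicidal effect was estimated by eye on a ten-point control scale after plants spent twelve to sixteen days in a greenhouse following soil or foliar treatment. Foliar sprays targeted plants at one to four leaves; all doses were formulated in a non-phytotoxic solvent with surfactant.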

[2] = test system: wild oat; experiment: Test B pre/postemergence wild oat; assay type: in vivo, Avena fatua
Procedure, shortened: as §1

[3] = test system: rice; experiment: Test B flood test rice; assay type: in vivo, Oryza sativa
Procedure, shortened: (§2)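 Each value is a visual injury score relative to controls, with 10 meaning complete control and 0 no effect. Evaluation took place twelve to sixteen days after the 2-leaf-stage plants were treated and kept in the greenhouse.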

[4] = test system: pigweed; experiment: Test B pre/postemergence pigweed; assay type: in vivo, Amaranthus retroflexus
Procedure, shortened: as §1

[5] = test system: giant foxtail; experiment: Test B pre/postemergence giant foxtail; assay type: in vivo, Setaria faberii
Procedure, shortened: as §1

[6] = test system: bamyardgrass; experiment: Test B flood test barnyardgrass; assay type: in vivo, Echinochloa crus-galli
Procedure, shortened: as §2

[7] = test system: wheat; experiment: Test B pre/postemergence wheat; assay type: in vivo, Triticum aestivum
Procedure, shortened: as §1

[8] = test system: smallflower flatsedge; experiment: Test B flood test smallflower flatsedge; assay type: in vivo, Cyperus difformis
Procedure, shortened: as §2

[9] = test system: soybean; experiment: Test B pre/postemergence soybean; assay type: in vivo, Glycine max
Procedure, shortened: as §1

[10] = test system: crabgrass; experiment: Test B pre/postemergence crabgrass; assay type: in vivo, Digitaria sanguinalis
Procedure, shortened: as §1

[11] = test system: morningglory; experiment: Test B pre/postemergence morningglory; assay type: in vivo, Ipomoea hederacea
Procedure, shortened: as §1

[12] = test system: duck salad; experiment: Test B flood test duck salad; assay type: in vivo, Heteranthera limosa
Procedure, shortened: as §2

[13] = test system: cocklebur; experiment: Test B pre/postemergence cocklebur; assay type: in vivo, Xanthium strumarium
Procedure, shortened: as §1

[14] = test system: surinam grass; experiment: Test B pre/postemergence surinam grass; assay type: in vivo, Brachiaria decumbens
Procedure, shortened: as §1

[15] = test system: sugar beet; experiment: Test B pre/postemergence sugar beet; assay type: in vivo, Beta vulgaris
Procedure, shortened: as §1

[16] = test system: bedstraw; experiment: Test B pre/postemergence bedstraw; assay type: in vivo, Galium aparine
Procedure, shortened: as §1

[17] = test system: corn; experiment: Test B pre/postemergence corn; assay type: in vivo, Zea mays
Procedure, shortened: as §1

[18] = test system: velvetleaf; experiment: Test B pre/postemergence velvetleaf; assay type: in vivo, Abutilon theophrasti
Procedure, shortened: as §1

[19] = test system: rape; experiment: Test B pre/postemergence rape; assay type: in vivo, Brassica napus
Procedure, shortened: as §1

[20] = test system: blackgrass; experiment: Test B pre/postemergence blackgrass; assay type: in vivo, Alopecurus myosuroides
Procedure, shortened: as §1

[21] = Postemergence, Rate 62 g/ha, scale 0 to 10, 0 is no effect, 10 is complete control
[22] = Postemergence, Rate 125 g/ha, scale of 0 to 10 where 0 is no effect and 10 is complete control
[23] = Postemergence, Rate 250 g/ha, scale of 0 to 10, 0 is no effect, 10 is complete control
[24] = Postemergence, Rate 500 g/ha, scale of 0 to 10 where 0 is no effect and 10 is complete control
[25] = Preemergence, Rate 62 g/ha, scale 0 to 10 (0 no effect, 10 complete control)
[26] = Preemergence, Rate 125 g/ha, scale of 0 to 10 where 0 is no effect and 10 is complete control
[27] = Preemergence, Rate 500 g/ha, scale of 0 to 10 where 0 is no effect and 10 is complete control
[28] = Rate 62 g/ha, flood test species, Pre-emergence, visual evaluation after twelve to sixteen days
[29] = Rate 125 g/ha, under heading Pre-emergence, flood test species, visual evaluation after twelve to sixteen days
[30] = Rate 250 g/ha, Pre-emergence (flood test species), scale 0 to 10, 0 is no effect, 10 is complete control
[31] = Rate 500 g/ha, Pre-emergence section of Table B, 0 to 10 scale (0 no effect, 10 complete control)

CC(C)N(C(=O)n1oc(=O)n(CC2=NOCCC2)c1=O)c1ccc(F)cc1 [Compound 601]
Plant response rating, Nutsedge [1, 21]: 0 | Plant response rating, Nutsedge [1, 22]: 0 | Nutsedge plant response rating [1, 23]: 0 | Plant response rating, Nutsedge [1, 24]: 0 | Nutsedge plant response rating [1, 25]: 0 | Nutsedge plant response rating [1, 26]: 0 | Plant response rating, Wild oats [2, 21]: 0 | Plant response rating, Wild oats [2, 22]: 0 | Wild oats plant response rating [2, 23]: 0 | Plant response rating, Wild oats [2, 24]: 0 | Wild oats plant response rating [2, 25]: 3 | Wild oats plant response rating [2, 26]: 8 | Plant response rating, Wild oats [2, 27]: 8 | Plant response rating, Rice (0 to 10 scale, 0 is no effect, 10 is complete control) [3, 28]: 0 | Rice plant response rating (0 to 10 scale, 0 is no effect, 10 is complete control) [3, 29]: 0 | Rice plant response rating [3, 30]: 0 | Rice plant response rating [3, 31]: 0 | Plant response rating, Redroot pigweed [4, 21]: 0 | Plant response rating, Redroot pigweed [4, 22]: 2 | Redroot pigweed plant response rating [4, 23]: 2 | Plant response rating, Redroot pigweed [4, 24]: 4 | Redroot pigweed plant response rating [4, 25]: 4 | Redroot pigweed plant response rating [4, 26]: 10 | Plant response rating, Redroot pigweed [4, 27]: 10 | Plant response rating, Giant foxtail [5, 21]: 7 | Plant response rating, Giant foxtail [5, 22]: 7 | Giant foxtail plant response rating [5, 23]: 7 | Plant response rating, Giant foxtail [5, 24]: 9 | Giant foxtail plant response rating [5, 25]: 10 | Giant foxtail plant response rating [5, 26]: 10 | Plant response rating, Giant foxtail [5, 27]: 10 | Plant response rating, Barnyardgrass (0 to 10 scale, 0 is no effect, 10 is complete control) [6, 28]: 0 | Barnyardgrass plant response rating (0 to 10 scale, 0 is no effect, 10 is complete control) [6, 29]: 0 | Barnyardgrass plant response rating [6, 30]: 0 | Barnyardgrass plant response rating [6, 31]: 0 | Plant response rating, Wheat [7, 21]: 0 | Plant response rating, Wheat [7, 22]: 0 | Wheat plant response rating [7, 23]: 0 | Plant response rating, Wheat [7, 24]: 3 | Wheat plant response rating [7, 25]: 0 | Wheat plant response rating [7, 26]: 1 | Plant response rating, Wheat [7, 27]: 6 | Plant response rating, S. Flatsedge (0 to 10 scale, 0 is no effect, 10 is complete control) [8, 28]: 0 | S. Flatsedge plant response rating (0 to 10 scale, 0 is no effect, 10 is complete control) [8, 29]: 0 | S. Flatsedge plant response rating [8, 30]: 0 | S. Flatsedge plant response rating [8, 31]: 0 | Plant response rating, Soybean [9, 21]: 4 | Plant response rating, Soybean [9, 22]: 4 | Soybean plant response rating [9, 23]: 5 | Plant response rating, Soybean [9, 24]: 6 | Soybean plant response rating [9, 25]: 0 | Soybean plant response rating [9, 26]: 0 | Plant response rating, Soybean [9, 27]: 1 | Plant response rating, Crabgrass [10, 21]: 3 | Plant response rating, Crabgrass [10, 22]: 4 | Crabgrass plant response rating [10, 23]: 5 | Plant response rating, Crabgrass [10, 24]: 9 | Crabgrass plant response rating [10, 25]: 6 | Crabgrass plant response rating [10, 26]: 9 | Plant response rating, Crabgrass [10, 27]: 10 | Plant response rating, Morningglory [11, 21]: 1 | Plant response rating, Morningglory [11, 22]: 1 | Morningglory plant response rating [11, 23]: 1 | Plant response rating, Morningglory [11, 24]: 1 | Morningglory plant response rating [11, 25]: 0 | Morningglory plant response rating [11, 26]: 0 | Plant response rating, Morningglory [11, 27]: 0 | Plant response rating, Ducksalad (0 to 10 scale, 0 is no effect, 10 is complete control) [12, 28]: 0 | Ducksalad plant response rating (0 to 10 scale, 0 is no effect, 10 is complete control) [12, 29]: 0 | Ducksalad plant response rating [12, 30]: 0 | Ducksalad plant response rating [12, 31]: 0 | Plant response rating, Cocklebur [13, 21]: 0 | Plant response rating, Cocklebur [13, 22]: 0 | Cocklebur plant response rating [13, 23]: 0 | Plant response rating, Cocklebur [13, 24]: 1 | Cocklebur plant response rating [13, 25]: 0 | Cocklebur plant response rating [13, 26]: 0 | Cocklebur plant response rating (0 to 10 scale) ([13]; Preemergence, Rate 250 g/ha): 0 | Plant response rating, Cocklebur [13, 27]: 0 | Plant response rating, B. signalgrass [14, 21]: 0 | Plant response rating, B. signalgrass [14, 22]: 0 | B. signalgrass plant response rating [14, 23]: 4 | Plant response rating, B. signalgrass [14, 24]: 7 | B. signalgrass plant response rating [14, 25]: 3 | B. signalgrass plant response rating [14, 26]: 7 | B. signalgrass plant response rating (0 to 10 scale, 0 is no effect, 10 is complete control) ([14]; Preemergence, Rate 250 g/ha): 8 | B. signalgrass plant response rating [14, 27]: 8 | Plant response rating, Sugarbeets [15, 21]: 0 | Plant response rating, Sugarbeets [15, 22]: 0 | Sugarbeets plant response rating [15, 23]: 0 | Plant response rating, Sugarbeets [15, 24]: 0 | Sugarbeets plant response rating [15, 25]: 0 | Sugarbeets plant response rating [15, 26]: 4 | Plant response rating, Sugarbeets [15, 27]: 5 | Bedstraw plant response rating [16, 23]: 3 | Plant response rating, Bedstraw [16, 24]: 8 | Bedstraw plant response rating [16, 25]: 0 | Bedstraw plant response rating [16, 26]: 0 | Bedstraw plant response rating (0 to 10 scale) ([16]; Preemergence, Rate 250 g/ha): 0 | Plant response rating, Corn [17, 21]: 0 | Plant response rating, Corn [17, 22]: 0 | Corn plant response rating [17, 23]: 0 | Plant response rating, Corn [17, 24]: 0 | Corn plant response rating [17, 25]: 0 | Corn plant response rating [17, 26]: 0 | Corn plant response rating (0 to 10 scale) ([17]; Preemergence, Rate 250 g/ha): 0 | Plant response rating, Corn [17, 27]: 3 | Plant response rating, Velvetleaf [18, 21]: 0 | Plant response rating, Velvetleaf [18, 22]: 0 | Velvetleaf plant response rating [18, 23]: 0 | Plant response rating, Velvetleaf [18, 24]: 4 | Velvetleaf plant response rating [18, 25]: 1 | Velvetleaf plant response rating [18, 26]: 4 | Plant response rating, Velvetleaf [18, 27]: 7 | Plant response rating, Rape [19, 21]: 0 | Plant response rating, Rape [19, 22]: 0 | Rape plant response rating [19, 23]: 0 | Plant response rating, Rape [19, 24]: 0 | Rape plant response rating [19, 25]: 0 | Rape plant response rating [19, 26]: 0 | Plant response rating, Rape [19, 27]: 5 | Blackgrass plant response rating [20, 23]: 7 | Plant response rating, Blackgrass [20, 24]: 8 | Blackgrass plant response rating [20, 26]: 8 | Blackgrass plant response rating (0 to 10 scale) ([20]; Preemergence, Rate 250 g/ha): 8 | Blackgrass plant response rating [20, 27]: 9

Source: US6737383B1, “Herbicidal oxadiazolidines” (priority 1999, dated 2004)
